US11311598B2, “Peptides and analogs for use in the treatment of oral mucositis” (Soligenix, Inc., priority 2013, dated 2022)
Entries after “also recorded” stand apart in the source; their conditions may differ. *1 amine or outer side, *2 acyl side, *3 side chain or, on linkers, in order; H or OH if unused. Where no end group is shown, it is not given here. [ ]: non-standard residue; d: D form. mp2 = 4-amino-1-methyl-1H-pyrrole-2-carboxylic acid, Cn1cc(N[*:1])cc1C(=O)[*:2]

What was measured:
[1] = test system: male C3H/HeN mice; test: chemotherapy-induced oral and gastrointestinal mucositis in the mouse; assay type: in vivo; details: 25 mg/kg IV on Days −1 and 2, scores evaluated for 4 days after induction
Experimental: In each study, 5-fluorouracil (60 mg/kg IP) was administered to male C3H/HeN mice on Days −4 and −2. […] […] Body weights were also measured daily and colitis severity was determined by video endoscopy on Days 4 and 7. In the first study, RIVPA (SEQ ID NO. 5) (25 mg/kg IV) was administered either once on Day −4 immediately prior to chemotherapy, twice on Days −4 and −2 immediately after chemotherapy or 3 times on Days −1, 2 and 5. […] In the second study, RIVPA (SEQ ID NO. 5) (25 mg/kg IV) was administered on either Days −1, 2 and 5, Days −1, 1 and 3 or Days 0, 2, and 4. […] In the third study, RIVPA (SEQ ID NO. 5) (25 or 5 mg/kg IV, as indicated) was administered either on Days −1, 2 and 5 or on Days 1 and 3. […] Statistical significance was assessed for oral mucositis using a chi-square analysis and for body weight area under the curve (AUC) with an ANOVA on ranks. […] Treatment with R(tBg)V1KR(tBg)V2 (SEQ ID NO. 91) and RIV(mp2)A-NH2 (SEQ ID NO. 92) was administered on Days −1 and 2 at a dose of 25 mg/kg IV.

[2] = test system: MRSA; test: MRSA bacteremia model (other IDR peptides); assay type: in vivo; details: 5 mg/kg administered 4 hours prior to infection
[3] = test system: MRSA; test: MRSA skin infection model; assay type: in vivo, mouse; details: 48 or 96 h after bacterial challenge
Experimental: Infection was initiated 1 day after the hair was removed from the dorsal area of each mouse. RIVPA (SEQ ID NO. 5) (25 mg/kg IV or 100 mg/kg SC) was administered 4 h prior to infection and at various times after infection as indicated. Oral linezolid was used as the comparator and was administered daily at 12.5 mg/kg. On Day 0 (at −1 h) each mouse was anesthetized using isoflurane and the shaved dorsal skin was damaged by 7 consecutive applications and removals of surgical tape. This lesion was then immediately infected by topical administration of 10 μL of the bacterial suspension, delivering a total challenge of 7.6 login cfu per mouse. Efficacy was evaluated by measurement of the bacterial burden in punch biopsies of the skin at 48 h (FIG. 14—panel A) and 96 h (FIG. 14—panel B) following the bacterial challenge and by macroscopic assessment of digital images of the skin by a blinded, board-certified pathologist at 48 h (FIG. 14—panel C) and 96 h (FIG. 14—panel D) after infection. […] The mean bacterial burden for each therapeutic group was statistically compared to that of its time-matched saline control through use of a t-test comparison of means, assuming unequal variances, performed on Excel. Comparisons which returned a p value […] were considered statistically different.

## RIV(mp2)A-NH2 (RIV[mp2]A-NH2; N-terminus assumed; SMILES CC[C@H](C)[C@H](NC(=O)[C@@H](N)CCCNC(=N)N)C(=O)N[C@H](C(=O)Nc1cc(C(=O)N[C@@H](C)C(N)=O)n(C)c1)C(C)C) [RIV(mp2)A-NH2 (SEQ ID NO. 92), mp2 = 4-Amino-1-methyl-1H-pyrrole-2-carboxylic acid]
[1]
  severity of oral mucositis (mucositis scores): reduces
[1]; listed as 92
  severity of oral mucositis (mucositis scores): demonstrated efficacy
[2]
  survival: enhances survival

## RIVPAY* (RIVPA[dY]; also: C-terminal modification (*)) [RIVPAY* (SEQ ID NO. 90)]
[2]
  survival: improve survival

## CC(=O)NC[C@H]1CN(c2ccc(N3CCOCC3)c(F)c2)C(=O)O1 [linezolid, reference compound]
[3]
  bacterial load in skin punch biopsies relative to control: neither linezolid nor RIVPA (SEQ ID NO. 5) reduced bacterial load

## R(tBg)V1KR(tBg)V2 [R(tBg)V1KR(tBg)V2 (SEQ ID NO. 91)]
[1]
  severity of oral mucositis (mucositis scores): reduces; also recorded: demonstrated efficacy
[2]
  survival: improve survival; also recorded: enhances survival
